ChEMBL document CHEMBL3507680, “University of Dundee, Gates Library screen for HepG2 cell viability”

Experiment: Human HepG2 cell viability assay in 384 well format
Type: toxicity, cell-based
Set-up: dose 125 nL, time 70.5 hour; concentration not given beside the values
Settings: HepG2 cells, read-out: Inhibition
For CCN(Cc1ccc2c(c1)OCCO2)C(=O)c1ccc(C)[nH]c1=O, the cytotoxicity at 70.5 h was -1.79%. CCn1cc(NC(=O)NCC(O)c2ccccc2)cn1 (centres undefined) gave a cytotoxicity at 70.5 h of 2.91%. O=C(NCC1(CO)CC1)NC(c1nccs1)C1CC1 (centres undefined) showed a cytotoxicity at 70.5 h of -3.86%. For CN(CCC(N)=O)Cc1cc(Br)cs1, the cytotoxicity at 70.5 h was -19.7%. O=C(O)c1cn(CC2CCCN(c3nc4ccccc4s3)C2)nn1 (centres undefined) gave a cytotoxicity at 70.5 h of 20.3%. Cc1ccc(OCC2CCCN(CC3CCOCC3)C2)cc1 (centres undefined) gave a cytotoxicity at 70.5 h of 2.28%. In the case of CC1c2ncc(COCc3ccccn3)n2CCN1C1CCCC1 (centres undefined), the cytotoxicity at 70.5 h is reported as -2.61%. In the case of Cc1noc(-c2ccnc(Oc3ccccc3CN3CCCCC3)c2)n1, the cytotoxicity at 70.5 h is reported as -1.96%. Cc1noc([C@@H]2C[C@H]3CN(C(=O)C4CCN(C)CC4)C[C@H]3O2)n1 showed a cytotoxicity at 70.5 h of -11.3%. CC(C)CCc1nc(CN2CCOC(Cn3cncn3)C2)cs1 (centres undefined) gave a cytotoxicity at 70.5 h of -2.95%. For CN1C(=O)CC(C(=O)O)C12CCN(c1ccc3c(n1)CCCC3)CC2 (centres undefined), the cytotoxicity at 70.5 h was -5.19%. CC(C)(CNC(=O)OC(C)(C)C)NC(=O)C1CC(=O)N(C2CC2)C1 (centres undefined) gave a cytotoxicity at 70.5 h of 13.1%. Compound Cc1noc([C@@]23CCO[C@@H]2CCN(C(=O)c2cc(C)on2)C3)n1 has a cytotoxicity at 70.5 h of -3.23%. Work on O=C(NCCSc1ccccc1)[C@H]1CNC[C@H](C(=O)N2CCOCC2)C1 yielded a cytotoxicity at 70.5 h of -6.2%. For Cc1ncsc1C(=O)NC1CCN(CC(=O)N(C)C(C)(C)C#N)CC1, the cytotoxicity at 70.5 h was 28.1%. Compound CC(C)NC(=O)N1CCN(S(=O)(=O)C2CC2)CC2(CNC(=O)C2)C1 (centres undefined) has a cytotoxicity at 70.5 h of 1.9%. Work on CN(Cc1ccccc1)CC(C)(C)NC(=O)c1cnccn1 yielded a cytotoxicity at 70.5 h of -0.0333%. Work on OCCN1CCOC2(CCCN(c3ncc(F)cn3)C2)C1 (centres undefined) yielded a cytotoxicity at 70.5 h of -3.36%. In the case of Cc1ccccc1CN(C)C(=O)Cn1nc(-c2ccc(F)cc2)oc1=O, the cytotoxicity at 70.5 h is reported as 29.6%. CC(C)CN1CCC2(CC1)CN(C(=O)C(C)C)C2 gave a cytotoxicity at 70.5 h of -9.29%. Work on Cc1cc(N2CCCC2c2cncc(N(C)C)n2)ncn1 (centres undefined) yielded a cytotoxicity at 70.5 h of 1.3%. For CCn1cc(S(=O)(=O)NC2CCCN(CC3CCCCC3)C2)cn1 (centres undefined), the cytotoxicity at 70.5 h was 15.9%. Work on CC(C)c1cc(C(=O)N2CCC3(CCc4ccccc4C(=O)N3)C2)on1 (centres undefined) yielded a cytotoxicity at 70.5 h of -2.23%. With CCC(C)NC(=O)Cn1ncc2c1c(C)nn2CC (centres undefined) the cytotoxicity at 70.5 h was 22.8%. Compound CCN(C)CC1CCN(C(=O)Nc2ccc(-c3csnn3)cc2)C1 (centres undefined) has a cytotoxicity at 70.5 h of -5.78%. Compound O=C(NCCc1cnccn1)c1ccc(S(=O)(=O)NC2CCC2)cc1 has a cytotoxicity at 70.5 h of 18.7%. In the case of CN(C)[C@H]1CCCCN(C(=O)c2cccc(-c3cccc(F)c3)c2)C1, the cytotoxicity at 70.5 h is reported as -4.14%. Cc1ccc(CN2C[C@H]3C[C@H](C(=O)Nc4cccnc4)[C@@H](C2)O3)cc1 showed a cytotoxicity at 70.5 h of 2.68%. Compound NC(=O)C1CCN(c2ccc(C(=O)N3CCc4ccccc43)cn2)C1 (centres undefined) has a cytotoxicity at 70.5 h of -4.05%. Compound CN(C(=O)c1cccc(C(=O)NCC(F)(F)F)c1)c1ccccc1 has a cytotoxicity at 70.5 h of 10.6%. For CCOc1ccnc(N2CCN(C(=O)CCc3ccncc3)CC2)n1, the cytotoxicity at 70.5 h was 0.226%. With CC(C)c1nc2n(n1)CC(NCc1ncc(-c3ccccc3)o1)CC2 (centres undefined) the cytotoxicity at 70.5 h was -6.07%. CCc1ncc(CN2CCC(CCc3ccccc3)CC2)cn1 gave a cytotoxicity at 70.5 h of 20.8%. With CCOC(=O)N1CCC(C(=O)c2cc(F)ccc2F)CC1 the cytotoxicity at 70.5 h was -8.51%. CN(Cc1cn(-c2ccccc2)nn1)C1CCCN(c2cccnn2)C1 (centres undefined) showed a cytotoxicity at 70.5 h of -3.67%. COc1ccc(CN(CCC#N)CCN2CCOCC2)cc1OC gave a cytotoxicity at 70.5 h of -10.2%. With O=C(CCC(F)(F)F)N1CCCC(CO)(CC2CC2)C1 (centres undefined) the cytotoxicity at 70.5 h was -8.1%. Compound COc1ccccc1OC1CN(C(=O)c2ccccc2C(C)=O)C1 has a cytotoxicity at 70.5 h of -19.5%. Cn1cc(CN2CCC3(CCCCN3S(C)(=O)=O)CC2)cn1 showed a cytotoxicity at 70.5 h of -11.7%. With CCN(CC)c1nc2ccsc2c(=O)n1CCC(=O)NCc1ccco1 the cytotoxicity at 70.5 h was 12.3%. With Cc1ncc2c(n1)CN(Cc1nnc(-c3occc3C)o1)CC2 the cytotoxicity at 70.5 h was 4.24%. With Cc1noc(C2CCC3(CCN(C(=O)c4ccncn4)CC3)O2)n1 (centres undefined) the cytotoxicity at 70.5 h was 3.42%. Work on Cc1cc(C)nc(CNC(=O)C(c2cccnc2)N2CCOCC2)n1 (centres undefined) yielded a cytotoxicity at 70.5 h of -6.63%. With CNS(=O)(=O)c1ccc(F)c(C(=O)NCc2ccnc(OC)c2)c1 the cytotoxicity at 70.5 h was 25.8%.
